Measurements published in PubChem BioAssay (NCI).
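Method: 48-hour compound exposure of cells in 96-well plates, five concentrations, linear interpolation of endpoints. GI50 marks 50% less growth. Definition used: TGI = concentration required for complete inhibition of growth.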

Key:
Experiment in all cases: DTP human tumour cell line panel, 48 h
A549 NSCLC = system: A549 NSCLC
MDA-MB-435 = system: MDA-MB-435
RXF 393 renal = system: RXF 393 renal
UACC-257 melanoma = system: UACC-257 melanoma
786-0 renal = system: 786-0 renal
MCF7 breast = system: MCF7 breast
EKVX NSCLC = system: EKVX NSCLC
HCC-2998 colon = system: HCC-2998 colon
NCI-H23 lung = system: NCI-H23 lung
SNB-19 CNS = system: SNB-19 CNS
SW-620 colon = system: SW-620 colon
LOX IMVI melanoma = system: LOX IMVI melanoma
NCI/ADR-RES ovarian = system: NCI/ADR-RES ovarian
HCT-116 colon = system: HCT-116 colon
HT29 colon = system: HT29 colon
KM12 colon = system: KM12 colon
PC-3 prostate = system: PC-3 prostate
SK-MEL-28 melanoma = system: SK-MEL-28 melanoma
U251 CNS = system: U251 CNS
TK-10 renal = system: TK-10 renal
SK-MEL-2 melanoma = system: SK-MEL-2 melanoma
A498 renal = system: A498 renal
T-47D breast = system: T-47D breast
HL-60(TB) leukemia = system: HL-60(TB) leukemia
HS 578T breast = system: HS 578T breast
DU-145 prostate = system: DU-145 prostate
MALME-3M melanoma = system: MALME-3M melanoma
MDA-MB-231 breast = system: MDA-MB-231 breast
HOP-92 NSCLC = system: HOP-92 NSCLC
SN12C renal = system: SN12C renal
OVCAR-8 ovarian = system: OVCAR-8 ovarian
OVCAR-4 ovarian = system: OVCAR-4 ovarian
MOLT-4 leukemia = system: MOLT-4 leukemia
SK-OV-3 ovarian = system: SK-OV-3 ovarian
COLO 205 colon = system: COLO 205 colon
SNB-75 CNS = system: SNB-75 CNS
HCT-15 colon = system: HCT-15 colon
UO-31 renal = system: UO-31 renal
M14 melanoma = system: M14 melanoma
SK-MEL-5 melanoma = system: SK-MEL-5 melanoma
SR leukemia = system: SR leukemia
ACHN renal = system: ACHN renal
CCRF-CEM leukemia = system: CCRF-CEM leukemia
UACC-62 melanoma = system: UACC-62 melanoma
OVCAR-3 ovarian = system: OVCAR-3 ovarian
IGROV1 ovarian = system: IGROV1 ovarian
BT-549 breast = system: BT-549 breast
SF-295 CNS = system: SF-295 CNS
SF-268 CNS = system: SF-268 CNS
K-562 leukemia = system: K-562 leukemia
SF-539 CNS = system: SF-539 CNS
NCI-H226 lung = system: NCI-H226 lung
RPMI-8226 leukemia = system: RPMI-8226 leukemia
CAKI-1 renal = system: CAKI-1 renal
OVCAR-5 ovarian = system: OVCAR-5 ovarian
HOP-62 NSCLC = system: HOP-62 NSCLC
NCI-H460 lung = system: NCI-H460 lung
NCI-H522 lung = system: NCI-H522 lung

O=[n+]1c(CBr)c(CBr)n([O-])c2ccccc21
GI50 (A549 NSCLC): 17.4 µM | TGI (A549 NSCLC): 35.6 µM | GI50 (MDA-MB-435): 12 µM | TGI (MDA-MB-435): 25 µM | GI50 (RXF 393 renal): 4.66 µM | TGI (RXF 393 renal): 16.9 µM | GI50 (UACC-257 melanoma): 13.6 µM | TGI (UACC-257 melanoma): 27.6 µM | GI50 (786-0 renal): 11.9 µM | TGI (786-0 renal): 25.7 µM | GI50 (MCF7 breast): 3.11 µM | TGI (MCF7 breast): 12.4 µM | GI50 (EKVX NSCLC): 15.3 µM | TGI (EKVX NSCLC): 29 µM | GI50 (HCC-2998 colon): 16.9 µM | TGI (HCC-2998 colon): 31 µM | GI50 (NCI-H23 lung): 14.8 µM | TGI (NCI-H23 lung): 29.4 µM | GI50 (SNB-19 CNS): 17.6 µM | TGI (SNB-19 CNS): 38.3 µM | GI50 (SW-620 colon): 1.86 µM | TGI (SW-620 colon): 3.69 µM | GI50 (LOX IMVI melanoma): 1.8 µM | TGI (LOX IMVI melanoma): 3.48 µM | GI50 (NCI/ADR-RES ovarian): 14.5 µM | TGI (NCI/ADR-RES ovarian): 33.7 µM | GI50 (HCT-116 colon): 3.94 µM | TGI (HCT-116 colon): 14.5 µM | GI50 (HT29 colon): 1.91 µM | TGI (HT29 colon): 3.49 µM | GI50 (KM12 colon): 17.1 µM | TGI (KM12 colon): 31.5 µM | GI50 (PC-3 prostate): 13.4 µM | TGI (PC-3 prostate): 31.1 µM | GI50 (SK-MEL-28 melanoma): 14.6 µM | TGI (SK-MEL-28 melanoma): 28.1 µM | GI50 (U251 CNS): 14.5 µM | TGI (U251 CNS): 29.8 µM | GI50 (TK-10 renal): 1.97 µM | TGI (TK-10 renal): 4.17 µM | GI50 (SK-MEL-2 melanoma): 15.3 µM | TGI (SK-MEL-2 melanoma): 29.6 µM | GI50 (A498 renal): 41.3 µM | TGI (A498 renal): > 100 µM | GI50 (T-47D breast): 2.58 µM | TGI (T-47D breast): 6.8 µM | GI50 (HL-60(TB) leukemia): 2.26 µM | TGI (HL-60(TB) leukemia): 5.8 µM | GI50 (HS 578T breast): 17 µM | TGI (HS 578T breast): 45.3 µM | GI50 (DU-145 prostate): 5.8 µM | TGI (DU-145 prostate): 18.4 µM | GI50 (MALME-3M melanoma): 1.47 µM | TGI (MALME-3M melanoma): 3.15 µM | GI50 (MDA-MB-231 breast): 11.9 µM | TGI (MDA-MB-231 breast): 24.5 µM | GI50 (HOP-92 NSCLC): 4.61 µM | TGI (HOP-92 NSCLC): 17.8 µM | GI50 (SN12C renal): 11 µM | TGI (SN12C renal): 24.3 µM | GI50 (OVCAR-8 ovarian): 15.2 µM | TGI (OVCAR-8 ovarian): 31 µM | GI50 (OVCAR-4 ovarian): 6.81 µM | TGI (OVCAR-4 ovarian): 20.4 µM | GI50 (MOLT-4 leukemia): 3.62 µM | TGI (MOLT-4 leukemia): 14.7 µM | GI50 (SK-OV-3 ovarian): 24.9 µM | TGI (SK-OV-3 ovarian): > 100 µM | GI50 (COLO 205 colon): 2.04 µM | TGI (COLO 205 colon): 3.99 µM | GI50 (SNB-75 CNS): 10.6 µM | TGI (SNB-75 CNS): 47.6 µM | GI50 (HCT-15 colon): 1.82 µM | TGI (HCT-15 colon): 3.48 µM | GI50 (UO-31 renal): 1.44 µM | TGI (UO-31 renal): 3 µM | GI50 (M14 melanoma): 4.65 µM | TGI (M14 melanoma): 17.6 µM | GI50 (SK-MEL-5 melanoma): 15.9 µM | TGI (SK-MEL-5 melanoma): 29.5 µM | GI50 (SR leukemia): 2.82 µM | TGI (SR leukemia): > 100 µM | GI50 (ACHN renal): 1.76 µM | TGI (ACHN renal): 3.18 µM | GI50 (CCRF-CEM leukemia): 2.79 µM | TGI (CCRF-CEM leukemia): 14.2 µM | GI50 (UACC-62 melanoma): 14.1 µM | TGI (UACC-62 melanoma): 27.4 µM | GI50 (OVCAR-3 ovarian): 1.79 µM | TGI (OVCAR-3 ovarian): 3.25 µM | GI50 (IGROV1 ovarian): 10.5 µM | TGI (IGROV1 ovarian): 31 µM | GI50 (BT-549 breast): 1.85 µM | TGI (BT-549 breast): 5.13 µM | GI50 (SF-295 CNS): 17.2 µM | TGI (SF-295 CNS): 36 µM | GI50 (SF-268 CNS): 15.9 µM | TGI (SF-268 CNS): 33.6 µM | GI50 (K-562 leukemia): 3.46 µM | TGI (K-562 leukemia): 17.2 µM | GI50 (SF-539 CNS): 13.3 µM | TGI (SF-539 CNS): 26.3 µM | GI50 (NCI-H226 lung): 11.7 µM | TGI (NCI-H226 lung): 30.7 µM | GI50 (RPMI-8226 leukemia): 2.73 µM | TGI (RPMI-8226 leukemia): 8.39 µM | GI50 (CAKI-1 renal): 12 µM | TGI (CAKI-1 renal): 24.5 µM | GI50 (OVCAR-5 ovarian): 14 µM | TGI (OVCAR-5 ovarian): 27.1 µM | GI50 (HOP-62 NSCLC): 17.8 µM | TGI (HOP-62 NSCLC): 37.5 µM | GI50 (NCI-H460 lung): 16.9 µM | TGI (NCI-H460 lung): 34.6 µM | GI50 (NCI-H522 lung): 1.74 µM | TGI (NCI-H522 lung): 3.17 µM
